{"source": "patent US20180085374A1", "about": "“Use of Morpholino Compounds for the Treatment of Halitosis” (MERIAL INC., priority 2007, published 2018)", "key": {"[1]": {"tested_on": "Volatile Sulphur Compounds (VSCs)", "experiment": "Levels of VSCs following treatment with delmopinol", "type": "in vivo"}, "oral bacteria": {"tested_on": "oral bacteria", "settings": "delmopinol mouthwash; cited from earlier work"}}, "data": [{"compound": "CCCC(CCC)CCCC1COCCN1CCO", "note": "(centres unmarked) [delmopinol, 3-(4-propyl-heptyl)-4-(2-hydroxyethyl)morpholine]", "values": [{"measurement": "levels of VSCs", "setting": "[1]", "value": "decrease"}, {"measurement": "numbers or proportions of oral bacteria", "setting": "oral bacteria", "value": "does not significantly affect"}]}]}
